Each compound was assayed against T1, Tyrosine-protein phosphatase non-receptor type 1 (Homo sapiens, UniProt P18031) (assay: Inhibition of human recombinant PTP1B).
T1 sequence (P18031 whole entry): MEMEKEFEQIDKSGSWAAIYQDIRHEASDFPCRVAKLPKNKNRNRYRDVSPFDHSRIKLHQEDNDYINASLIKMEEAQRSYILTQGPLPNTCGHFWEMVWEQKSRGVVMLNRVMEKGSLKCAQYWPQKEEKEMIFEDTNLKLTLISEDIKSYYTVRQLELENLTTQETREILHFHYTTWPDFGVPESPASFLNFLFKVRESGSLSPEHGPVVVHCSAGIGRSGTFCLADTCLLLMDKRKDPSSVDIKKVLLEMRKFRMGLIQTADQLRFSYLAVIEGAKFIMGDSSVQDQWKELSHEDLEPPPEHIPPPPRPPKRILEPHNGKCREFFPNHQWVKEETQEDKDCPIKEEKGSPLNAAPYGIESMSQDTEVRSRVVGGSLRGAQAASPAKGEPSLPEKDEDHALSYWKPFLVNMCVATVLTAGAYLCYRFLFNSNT

Ki	Compound
0.001 µM	CS(=O)(=O)Nc1ccccc1CS(=O)(=O)N1CCC(Nc2cccc(-c3sc(C(=O)O)c(OCC(=O)O)c3Br)c2)CC1
0.01 µM	O=C(O)COc1c(C(=O)O)sc(-c2cccc(NC3CCN(S(=O)(=O)Cc4cccc(Cl)c4)CC3)c2)c1Br
0.004 µM	Cc1ccccc1CS(=O)(=O)N1CCC(Nc2cccc(-c3sc(C(=O)O)c(OCC(=O)O)c3Br)c2)CC1
0.038 µM	O=C(O)COc1c(C(=O)O)sc(-c2cccc(NC3CCN(S(=O)(=O)Cc4ccc(Cl)cc4)CC3)c2)c1Br
0.003 µM	COc1ccccc1NC(=O)N1CCC(CNc2cccc(-c3sc(C(=O)O)c(OCC(=O)O)c3Br)c2)CC1
0.014 µM	CCNC(=O)Nc1ccccc1CS(=O)(=O)N1CCC(Nc2cccc(-c3sc(C(=O)O)c(OCC(=O)O)c3Br)c2)CC1
0.2 µM	O=C(O)COc1c(C(=O)O)sc(-c2cccc(NCC3CCCCC3)c2)c1Br
4 µM	COc1cccc(-c2sc(C(=O)O)c(OCC(=O)O)c2Br)c1
0.008 µM	Cc1c(-c2cccc(NC3CCN(S(=O)(=O)Cc4ccccc4)CC3)c2)sc(C(=O)O)c1OCC(=O)O
2.1 µM	O=C(O)COc1c(C(=O)O)sc(-c2cccc(NC(=O)c3ccccc3)c2)c1Br
0.006 µM	O=C(O)COc1c(C(=O)O)sc(-c2cccc(NC3CCN(S(=O)(=O)Cc4ccccc4C(F)(F)F)CC3)c2)c1Br
0.055 µM	O=C(O)COc1c(C(=O)O)sc(-c2cccc(NC3CCN(S(=O)(=O)c4ccccc4)CC3)c2)c1Br
2 µM	CCC(=O)Nc1cccc(-c2sc(C(=O)O)c(OCC(=O)O)c2Br)c1
3.8 µM	O=C(O)COc1c(C(=O)O)sc(-c2cccc(NC3CCNCC3)c2)c1Br
0.005 µM	O=C(O)COc1c(C(=O)O)sc(-c2cccc(NC3CCN(S(=O)(=O)Cc4ccccc4Cl)CC3)c2)c1Br
2 µM	O=C(O)COc1cc(-c2cccc(NC3CCN(S(=O)(=O)Cc4ccccc4)CC3)c2)sc1C(=O)O
0.31 µM	O=C(O)COc1c(C(=O)O)sc(-c2cccc(NCC3CCN(S(=O)(=O)c4ccccc4)CC3)c2)c1Br
0.007 µM	O=C(O)COc1c(C(=O)O)sc(-c2cccc(NCC3CCN(C(=O)Nc4ccccc4)CC3)c2)c1Br
0.68 µM	O=C(O)COc1c(C(=O)O)sc(-c2cccc(OCc3ccccc3)c2)c1Br

Ki	Compound
0.00068 µM	O=C(O)COc1c(C(=O)O)sc(-c2cccc(NC3CCN(S(=O)(=O)Cc4ccccc4)CC3)c2)c1Cl
0.006 µM	Cc1cccc(C)c1CS(=O)(=O)N1CCC(Nc2cccc(-c3sc(C(=O)O)c(OCC(=O)O)c3Br)c2)CC1
0.12 µM	O=C(O)COc1c(C(=O)O)sc(-c2cccc(NC3CCCCCC3)c2)c1Br
0.31 µM	O=C(O)COc1c(C(=O)O)sc(-c2cccc(NC3CCOCC3)c2)c1Br
2 µM	COC(=O)Nc1cccc(-c2sc(C(=O)O)c(OCC(=O)O)c2Br)c1
0.004 µM	O=C(O)COc1c(C(=O)O)sc(-c2cccc(NCC3CCN(C(=O)Nc4ccccc4Cl)CC3)c2)c1Br
0.024 µM	O=C(O)COc1c(C(=O)O)sc(-c2cccc(OC3CCN(S(=O)(=O)Cc4ccccc4)CC3)c2)c1Br
0.074 µM	O=C(O)COc1c(C(=O)O)sc(-c2cccc(NCC3CCN(S(=O)(=O)Cc4ccccc4)CC3)c2)c1Br
0.013 µM	O=C(O)COc1c(C(=O)O)sc(-c2cccc(OCC3CCN(C(=O)Nc4ccccc4)CC3)c2)c1Br
0.44 µM	O=C(O)COc1c(C(=O)O)sc(-c2cccc(NS(=O)(=O)c3ccc(F)cc3)c2)c1Br
0.39 µM	COC(=O)N1CCC(Nc2cccc(-c3sc(C(=O)O)c(OCC(=O)O)c3Br)c2)CC1
0.39 µM	O=C(O)COc1c(C(=O)O)sc(-c2cccc(NC3CCCC3)c2)c1Br
0.003 µM	Cc1ccccc1NC(=O)N1CCC(CNc2cccc(-c3sc(C(=O)O)c(OCC(=O)O)c3Br)c2)CC1
0.003 µM	Cc1cccc(C)c1NC(=O)N1CCC(CNc2cccc(-c3sc(C(=O)O)c(OCC(=O)O)c3Br)c2)CC1
0.19 µM	CC(=O)N1CCC(Nc2cccc(-c3sc(C(=O)O)c(OCC(=O)O)c3Br)c2)CC1
1.7 µM	Nc1cccc(-c2sc(C(=O)O)c(OCC(=O)O)c2Br)c1
0.3 µM	O=C(O)COc1c(C(=O)O)sc(-c2cccc(NC3CCN(C(=O)NCc4ccccc4)CC3)c2)c1Br
2.1 µM	CC(C)NC(=O)Nc1cccc(-c2sc(C(=O)O)c(OCC(=O)O)c2Br)c1
0.044 µM	CS(=O)(=O)N1CCC(Nc2cccc(-c3sc(C(=O)O)c(OCC(=O)O)c3Br)c2)CC1

The compounds below were run against T2, Receptor-type tyrosine-protein phosphatase C (Homo sapiens, UniProt P08575) (assay: Inhibition of human recombinant CD45).
T2 sequence (P08575 whole entry): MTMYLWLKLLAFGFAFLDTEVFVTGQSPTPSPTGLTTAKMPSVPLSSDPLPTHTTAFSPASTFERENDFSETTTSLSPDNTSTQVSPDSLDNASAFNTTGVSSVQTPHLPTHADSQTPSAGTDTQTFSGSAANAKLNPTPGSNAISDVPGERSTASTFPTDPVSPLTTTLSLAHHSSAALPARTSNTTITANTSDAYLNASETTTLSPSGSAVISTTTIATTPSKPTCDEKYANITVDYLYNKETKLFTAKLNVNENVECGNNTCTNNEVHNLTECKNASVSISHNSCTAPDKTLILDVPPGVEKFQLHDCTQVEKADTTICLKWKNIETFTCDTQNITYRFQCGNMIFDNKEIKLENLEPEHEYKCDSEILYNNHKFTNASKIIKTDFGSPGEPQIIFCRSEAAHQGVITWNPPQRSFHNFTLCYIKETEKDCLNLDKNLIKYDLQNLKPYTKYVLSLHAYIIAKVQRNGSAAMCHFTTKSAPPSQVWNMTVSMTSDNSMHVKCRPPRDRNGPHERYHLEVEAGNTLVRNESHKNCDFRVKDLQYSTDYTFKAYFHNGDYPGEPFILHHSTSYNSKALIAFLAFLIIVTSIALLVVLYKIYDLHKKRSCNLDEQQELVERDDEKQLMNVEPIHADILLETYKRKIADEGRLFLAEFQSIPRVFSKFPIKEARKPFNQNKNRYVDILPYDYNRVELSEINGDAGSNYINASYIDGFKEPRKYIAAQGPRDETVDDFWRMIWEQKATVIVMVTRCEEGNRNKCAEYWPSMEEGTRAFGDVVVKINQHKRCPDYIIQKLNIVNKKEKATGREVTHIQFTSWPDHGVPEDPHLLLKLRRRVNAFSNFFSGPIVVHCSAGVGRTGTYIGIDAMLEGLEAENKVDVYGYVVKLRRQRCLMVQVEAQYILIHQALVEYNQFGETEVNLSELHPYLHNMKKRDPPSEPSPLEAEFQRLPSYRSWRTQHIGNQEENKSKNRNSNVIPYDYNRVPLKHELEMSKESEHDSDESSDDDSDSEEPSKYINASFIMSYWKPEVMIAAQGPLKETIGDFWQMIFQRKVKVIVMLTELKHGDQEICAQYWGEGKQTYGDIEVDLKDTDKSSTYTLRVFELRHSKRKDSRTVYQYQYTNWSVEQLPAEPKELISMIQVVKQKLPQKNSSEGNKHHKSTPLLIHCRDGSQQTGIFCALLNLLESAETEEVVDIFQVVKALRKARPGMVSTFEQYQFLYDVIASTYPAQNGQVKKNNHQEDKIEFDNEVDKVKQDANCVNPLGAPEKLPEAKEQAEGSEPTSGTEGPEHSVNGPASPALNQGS

Ki	Compound
151 µM	CC1(C)CC(Nc2cccc(-c3sc(C(=O)O)c(OCC(=O)O)c3Br)c2)CC(C)(C)C1
280 µM	O=C(O)COc1c(C(=O)O)sc(-c2ccccc2)c1Br

These compounds were tested against Receptor-type tyrosine-protein phosphatase F (Homo sapiens, UniProt P10586) (assay: Inhibition of human recombinant LAR).
Chain of Receptor-type tyrosine-protein phosphatase F (P10586 whole entry): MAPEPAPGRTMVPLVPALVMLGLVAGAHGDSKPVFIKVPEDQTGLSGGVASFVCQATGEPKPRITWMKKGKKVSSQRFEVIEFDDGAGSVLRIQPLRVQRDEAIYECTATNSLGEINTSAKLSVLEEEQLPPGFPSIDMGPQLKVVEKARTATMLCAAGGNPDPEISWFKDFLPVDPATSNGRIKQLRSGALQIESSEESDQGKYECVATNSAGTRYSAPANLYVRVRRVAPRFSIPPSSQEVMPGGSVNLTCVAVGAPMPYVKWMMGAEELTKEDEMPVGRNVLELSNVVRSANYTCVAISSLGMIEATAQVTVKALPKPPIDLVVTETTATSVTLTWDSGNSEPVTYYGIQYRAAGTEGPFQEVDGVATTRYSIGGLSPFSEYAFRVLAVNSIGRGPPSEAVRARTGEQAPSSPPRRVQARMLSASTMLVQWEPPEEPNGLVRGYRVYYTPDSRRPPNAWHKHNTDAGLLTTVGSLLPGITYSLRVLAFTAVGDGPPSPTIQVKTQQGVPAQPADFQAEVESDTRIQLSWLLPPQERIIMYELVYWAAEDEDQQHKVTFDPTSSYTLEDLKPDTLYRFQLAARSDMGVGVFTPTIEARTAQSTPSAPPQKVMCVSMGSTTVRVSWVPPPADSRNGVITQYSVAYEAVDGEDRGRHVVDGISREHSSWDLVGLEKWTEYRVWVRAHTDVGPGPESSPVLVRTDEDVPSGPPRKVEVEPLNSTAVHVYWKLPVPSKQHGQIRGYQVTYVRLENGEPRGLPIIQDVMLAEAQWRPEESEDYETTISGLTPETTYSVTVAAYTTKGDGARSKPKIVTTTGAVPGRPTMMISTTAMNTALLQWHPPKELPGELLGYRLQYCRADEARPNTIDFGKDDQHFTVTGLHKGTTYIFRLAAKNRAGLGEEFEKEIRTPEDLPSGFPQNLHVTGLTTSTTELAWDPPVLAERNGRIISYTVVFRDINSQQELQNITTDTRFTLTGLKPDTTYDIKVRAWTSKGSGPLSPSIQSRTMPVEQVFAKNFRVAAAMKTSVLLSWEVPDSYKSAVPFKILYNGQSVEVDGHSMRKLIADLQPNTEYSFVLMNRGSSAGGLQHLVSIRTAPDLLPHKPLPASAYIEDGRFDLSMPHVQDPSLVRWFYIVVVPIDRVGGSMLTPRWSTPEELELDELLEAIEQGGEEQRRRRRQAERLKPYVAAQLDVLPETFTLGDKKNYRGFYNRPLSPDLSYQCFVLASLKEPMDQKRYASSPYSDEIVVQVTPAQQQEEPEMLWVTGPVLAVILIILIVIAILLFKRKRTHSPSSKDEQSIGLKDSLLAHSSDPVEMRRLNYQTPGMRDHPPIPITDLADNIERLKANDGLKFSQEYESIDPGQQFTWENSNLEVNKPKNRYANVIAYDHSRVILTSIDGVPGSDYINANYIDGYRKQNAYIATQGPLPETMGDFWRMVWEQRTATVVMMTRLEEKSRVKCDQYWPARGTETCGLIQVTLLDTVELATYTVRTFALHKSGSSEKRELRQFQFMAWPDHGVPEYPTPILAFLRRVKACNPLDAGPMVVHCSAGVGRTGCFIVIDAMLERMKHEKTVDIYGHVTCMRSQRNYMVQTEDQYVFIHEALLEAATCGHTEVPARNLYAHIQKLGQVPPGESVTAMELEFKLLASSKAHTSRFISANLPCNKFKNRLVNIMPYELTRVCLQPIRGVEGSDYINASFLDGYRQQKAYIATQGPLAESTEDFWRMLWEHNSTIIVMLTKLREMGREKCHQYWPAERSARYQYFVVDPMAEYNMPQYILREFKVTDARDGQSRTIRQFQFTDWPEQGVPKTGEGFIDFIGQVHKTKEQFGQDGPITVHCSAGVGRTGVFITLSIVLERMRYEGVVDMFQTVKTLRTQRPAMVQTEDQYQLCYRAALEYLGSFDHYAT

Ki	Compound
> 1000 µM	CC1(C)CC(Nc2cccc(-c3sc(C(=O)O)c(OCC(=O)O)c3Br)c2)CC(C)(C)C1
> 500 µM	O=C(O)COc1c(C(=O)O)sc(-c2ccccc2)c1Br

From ChEMBL document CHEMBL1148776, “Structure-based optimization of protein tyrosine phosphatase 1B inhibitors: from the active site to the second phosphotyrosine binding site” (J Med Chem, 2007)
